Values of other authors in patent US20030077264A1, “Antimicrobial blood treatment using allicin and related compounds” (priority 2001, published 2003).

What was measured:
[1] = tested on: Helicobacter pylori; details: in medium
[2] = buffer

Substance: thio-2-propene-1-sulfinic acid S-allyl ester [Allicin]
- minimum inhibitory concentration [1]: 4.0 µg/mL
- half-life [2]: 30 to 40 days
